This assay addresses T1, human M4 muscarinic acetylcholine receptor (Homo sapiens, UniProt P08173).
T1 construct: expressed in transfected cells; host or cells: CHO-K1
T1 sequence (P08173 1-479): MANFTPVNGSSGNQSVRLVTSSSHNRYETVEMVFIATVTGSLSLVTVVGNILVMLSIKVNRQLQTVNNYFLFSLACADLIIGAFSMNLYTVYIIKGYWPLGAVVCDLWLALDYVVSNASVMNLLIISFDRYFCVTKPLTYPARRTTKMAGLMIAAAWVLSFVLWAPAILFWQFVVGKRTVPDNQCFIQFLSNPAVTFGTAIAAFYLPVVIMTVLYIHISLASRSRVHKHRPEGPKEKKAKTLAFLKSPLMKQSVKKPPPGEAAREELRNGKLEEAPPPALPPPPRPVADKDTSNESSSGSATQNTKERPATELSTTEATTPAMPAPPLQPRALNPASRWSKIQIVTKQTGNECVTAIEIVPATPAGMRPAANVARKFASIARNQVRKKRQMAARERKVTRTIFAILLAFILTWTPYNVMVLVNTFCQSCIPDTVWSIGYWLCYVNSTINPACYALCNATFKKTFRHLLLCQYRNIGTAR
The experiment in a line: human FLIPR-based M4 PAM assay (calcium mobilization, CHO-K1 cells with human M4 receptor and Gαqi5). In kind it is cell-based. To be noted: inflection point (IP) of dose response curve, acetylcholine added at 20% of maximum response, read-out: M4 FLIPPR Hu IP. The method, then: In a typical experiment the M4 muscarinic acetylcholine receptor modulating activity of the compounds of the present invention was determined in accordance with the following experimental method. CHO-K1 cells stably transfected with human M4 receptor and chimeric G-protein Gαqi5 (Coward P, et al., Analytical Biochemistry, 270:242-248 (1999)) are thawed from liquid N2 storage, resuspended in growth medium, plated in black, clear bottom 384 well plates, and incubated 16-20 hours at 37° C., 5% CO2. On the day of assay, growth medium is removed, the cells are washed 2 times with wash buffer, and cells are incubated in dye loading buffer at 37° C., 5% CO2 for ˜1 hour. Following dye loading the cell plates are placed in a FLIPR Tetra instrument and while monitoring dye fluorescence (excitation […]), 10 uL of test substance at increasing concentrations is added, and fluorescence values are recorded for 4 min. Next, 10 uL of acetylcholine is added (final concentration calculated so as to achieve 20% of the maximum acetycholine response), and the fluorescence reading is continued for 3.5 min. In some cases, a third addition of acetylcholine (final concentration calculated to achieve 70% of the maximal acetylcholine response) is performed. The resulting dose response curves are fit to a 4 parameter logistic equation and the final result is determined as the inflection point (IP) of the curve
CHO-K1 cells stably transfected with human M4 receptor and chimeric G-protein Gαqi5 are thawed from liquid N2 storage, resuspended in growth medium, plated in black, clear bottom 384 well plates, and incubated 16-20 hours at 37° C., 5% CO2.
On the day of assay, growth medium is removed, the cells are washed 2 times with wash buffer, and cells are incuabted in dye loading buffer at 37° C., 5% CO2 for ˜1 h. Following dye loading the cell plates are placed in a FLIPR Tetra instrument and while monitoring dye fluorescence ([…]), 10 uL of test substance at increasing concentrations is added, and fluorescence values are recorded for 4 min. Next, 10 uL of acetylcholine is added (final concentration calculated so as to achieve 20% of the maximum acetycholine response), and the fluorescence reading is continued for 3.5 min. In some cases, a third addition of acetylcholine (final concentration calculated to achieve 70% of the maximal acetylcholine response) is performed.
On the technique in general: A change in cytosolic calcium serves as a functional read-out for many receptors and channels.
With `O=C1c2cc(-c3nc4c(cc3-c3cnc(CC5CCCC5)o3)CCC4)cnc2CN1CC1CC1` [Example 52, 3-(3-(2-(cyclopentylmethyl)oxazol-5-yl)-6,7-dihydro-5H-cyclopenta[b]pyridin-2-yl)-6-(cyclopropylmethyl)-6,7-dihydro-5H-pyrrolo[3,4-b] pyridin-5-one], the EC50 was determined as 178 nM.

As for `CN1Cc2ncc(-c3nc4c(cc3-c3cnc(CC5CCCC5)o3)CCC4)cc2C1=O` [Example 53, 3-(3-(2-(cyclopentylmethyl)oxazol-5-yl)-6,7-dihydro-5H-cyclopenta[b]pyridin-2-yl)-6-methyl-6,7-dihydro-5H-pyrrolo[3,4-b] pyridin-5-one], the EC50 was found to be 153 nM.

As for `COc1cc2ccc(-c3nc(C)ccc3-c3cnc(Cc4ccc(F)cc4)o3)cc2nn1` [Example 54, 2-(4-fluorobenzyl)-5-(2-(3-methoxycinnolin-7-yl)-6-methylpyridin-3-yl)oxazole], the EC50 stood at 45 nM.

As to `N#Cc1ccc(-c2cnc(CC3CCCC3)o2)c(N2CCn3ccnc3C2)n1` [Example 55, 5-(2-(cyclopentylmethyl)oxazol-5-yl)-6-(5,6-dihydroimidazo[1,2-a]pyrazin-7(8H)-yl)picolinonitrile], the EC50 was 8 nM.

For `Cc1ccc(-c2cnc(CC3CCCC3)o2)c(N2CCn3ccnc3C2)n1` [Example 56, 2-(cyclopentylmethyl)-5-(2-(5,6-dihydroimidazo[1,2-a]pyrazin-7(8H)-yl)-6-methylpyridin-3-yl)oxazole], the EC50 amounted to 11 nM.

For the compound `Clc1ccc(-c2cnc(CC3CCCC3)o2)c(N2CCn3ccnc3C2)n1` [Example 57, 5-(6-chloro-2-(5,6-dihydroimidazo[1,2-a]pyrazin-7(8H)-yl)pyridin-3-yl)-2-(cyclopentylmethyl) oxazole], the EC50 was determined as 117 nM.

For `N#Cc1ccc(-c2cnc(CC3CCCC3)o2)c(N2CCn3ccnc3C2)n1` [Example 58, 5-(2-(cyclopentylmethyl)oxazol-5-yl)-6-(5,6-dihydroimidazo[1,2-a]pyrazin-7(8H)-yl) picolinonitrile], the EC50 amounted to 17 nM.

`Cc1ccc(-c2cnc(Cc3ccc(F)cc3)o2)c(N2CCn3ccnc3C2)n1` [Example 59, 5-(2-(5,6-dihydroimidazo[1,2-a]pyrazin-7(8H)-yl)-6-methylpyridin-3-yl)-2-(4-fluorobenzyl)oxazole]: the EC50 came to 459 nM.

As for `Cc1cn2ccc(-c3nc(C#N)ccc3-c3cnc(CC4CC4)o3)cc2n1` [Example 60, 5-(2-(cyclopropylmethyl)oxazol-5-yl)-6-(2-methylimidazo[1,2-a]pyridin-7-yl)picolinonitrile], the EC50 was found to be 79 nM.

In the case of `CC(C)Cc1ncc(-c2ccc(C#N)nc2-c2ccc3cccnc3c2)o1` [Example 61, 5-(2-isobutyloxazol-5-yl)-6-(quinolin-7-yl)picolinonitrile], the EC50 came out at 61 nM.

`N#Cc1ccc(-c2cnc(CC3CC3)o2)c(-c2ccc3cccnc3c2)n1` [Example 62, 5-(2-(cyclopropylmethyl)oxazol-5-yl)-6-(quinolin-7-yl)picolinonitrile]: the EC50 turned out to be 104 nM.

Regarding `N#Cc1ccc(-c2cnc(CC3CC3)o2)c(-c2ccn3ccnc3c2)n1` [Example 63, 5-(2-(cyclopropylmethyl)oxazol-5-yl)-6-(imidazo[1,2-a]pyridin-7-yl)picolinonitrile], the EC50 was found to be 94 nM.

Take `Cc1nc(CC2CCCC2)oc1-c1ccc(C#N)nc1-c1ccc2cccnc2c1` [Example 64, 5-(2-(cyclopentylmethyl)-4-methyloxazol-5-yl)-6-(quinolin-7-yl)picolinonitrile]: the EC50 worked out at 49 nM.

For `CC(C)(C)CCc1ncc(-c2ccc(C#N)nc2-c2ccc3cccnc3c2)o1` [Example 65, 5-(2-(3,3-dimethylbutyl)oxazol-5-yl)-6-(quinolin-7-yl)picolinonitrile], the EC50 worked out at 96 nM.

Take `CC(C)(C)CCc1ncc(-c2ccc(C#N)nc2-c2ccn3ccnc3c2)o1` [Example 66, 5-(2-(3,3-dimethylbutyl)oxazol-5-yl)-6-(imidazo[1,2-a]pyridin-7-yl) picolinonitrile]: the EC50 stood at 42 nM.

Regarding `N#Cc1ccc(-c2cnc(CCC(F)(F)F)o2)c(-c2ccn3ccnc3c2)n1` [Example 67, 6-(imidazo[1,2-a]pyridin-7-yl)-5-(2-(3,3,3-trifluoropropyl)oxazol-5-yl)picolinonitrile], the EC50 is 136 nM.

For `N#Cc1ccc(-c2cnc(CC(O)C3CC3)o2)c(-c2ccc3cccnc3c2)n1` (stereo not shown) [Example 68, 5-(2-(2-cyclopropyl-2-hydroxyethyl)oxazol-5-yl)-6-(quinolin-7-yl)picolinonitrile], the EC50 stood at 231 nM.

As for `N#Cc1ccc(-c2cnc(CC(F)C3CC3)o2)c(-c2ccc3cccnc3c2)n1` (stereo not shown) [Example 69, 5-(2-(2-cyclopropyl-2-fluoroethyl)oxazol-5-yl)-6-(quinolin-7-yl)picolinonitrile], the EC50 amounted to 41 nM.

Regarding `N#Cc1ccc(-c2cnc(CC3(F)CCCC3)o2)c(-c2ccc3cccnc3c2)n1` [Example 72, 5-(2-((1-fluorocyclopentyl)methyl)oxazol-5-yl)-6-(quinolin-7-yl)picolinonitrile], the EC50 stood at 51 nM.

As to `N#Cc1ccc(-c2cnc(CC3(F)CCC3)o2)c(-c2ccc3cccnc3c2)n1` [Example 73, 5-(2-((1-fluorocyclobutyl)methyl)oxazol-5-yl)-6-(quinolin-7-yl)picolinonitrile], the EC50 stood at 65 nM.

Take `CCC(F)(CC)Cc1ncc(-c2ccc(C#N)nc2-c2ccc3cccnc3c2)o1` [Example 74, 5-(2-(2-ethyl-2-fluorobutyl)oxazol-5-yl)-6-(quinolin-7-yl)picolinonitrile]: the EC50 was determined as 138 nM.

Regarding `Cc1cn2ccc(-c3nc(C#N)ccc3-c3cnc(CC4(O)CCCC4)o3)cc2n1` [Example 75, 5-(2-((1-hydroxycyclopentyl)methyl)oxazol-5-yl)-6-(2-methylimidazo [1,2-a]pyridin-7-yl) picolinonitrile], the EC50 came to 230 nM.

With `N#Cc1ccc(-c2cnc(CC3(F)CCCC3)o2)c(-c2ccn3ccnc3c2)n1` [Example 76, 5-(2-((1-fluorocyclopentyl)methyl)oxazol-5-yl)-6-(imidazo [1,2-a]pyridin-7-yl) picolinonitrile], the EC50 worked out at 15 nM.

For the compound `CN1Cc2ncc(-c3nc(C#N)ccc3-c3cnc(CC4(F)CCCC4)o3)cc2C1=O` [Example 77], the EC50 amounted to 45 nM.

Take `FC1(Cc2ncc(-c3cccnc3-c3ccn4ccnc4c3)o2)CCCC1` [Example 78, 2-((1-fluorocyclopentyl)methyl)-5-(2-(imidazo[1,2-a]pyridin-7-yl)pyridin-3-yl) oxazole]: the EC50 amounted to 105 nM.

Regarding `Cc1cn2ccc(-c3nc(C#N)ccc3-c3cnc(CC4(F)CCCC4)o3)cc2n1` [Example 79, 5-(2-((l-fluorocyclopentyl)methyl)oxazol-5-yl)-6-(2-methylimidazo [1,2-a]pyridin-7-yl) picolinonitrile], the EC50 was determined as 31 nM.

As for `CC(C)(F)Cc1ncc(-c2ccc(C#N)nc2-c2ccc3cccnc3c2)o1` [Example 80, 5-(2-(2-fluoro-2-methylpropyl)oxazol-5-yl)-6-(quinolin-7-yl) picolinonitrile], the EC50 turned out to be 141 nM.

As for `CN1Cc2ccc(-c3nc(C#N)ccc3-c3cnc(CC4(O)CCCC4)o3)cc2C1=O` [Example 81, 5-(2-((1-hydroxycyclopentyl)methyl)oxazol-5-yl)-6-(2-methyl-3-oxoisoindolin-5-yl) picolinonitrile], the EC50 was 184 nM.

These data come from US10981902B2 (Merck Sharp & Dohme Corp., priority 2017, dated 2021).
